BindingDB's records for doi:10.1021/jm1011319 (AstraZeneca, 2011)

Key:
[1] = target: T1, Signal transducer and activator of transcription 5A (Homo sapiens, UniProt P42229); assay: Inhibition of Stat5 phosphorylation in human HEL cells after 1 hr by Western blotting
T1 sequence (P42229 whole entry): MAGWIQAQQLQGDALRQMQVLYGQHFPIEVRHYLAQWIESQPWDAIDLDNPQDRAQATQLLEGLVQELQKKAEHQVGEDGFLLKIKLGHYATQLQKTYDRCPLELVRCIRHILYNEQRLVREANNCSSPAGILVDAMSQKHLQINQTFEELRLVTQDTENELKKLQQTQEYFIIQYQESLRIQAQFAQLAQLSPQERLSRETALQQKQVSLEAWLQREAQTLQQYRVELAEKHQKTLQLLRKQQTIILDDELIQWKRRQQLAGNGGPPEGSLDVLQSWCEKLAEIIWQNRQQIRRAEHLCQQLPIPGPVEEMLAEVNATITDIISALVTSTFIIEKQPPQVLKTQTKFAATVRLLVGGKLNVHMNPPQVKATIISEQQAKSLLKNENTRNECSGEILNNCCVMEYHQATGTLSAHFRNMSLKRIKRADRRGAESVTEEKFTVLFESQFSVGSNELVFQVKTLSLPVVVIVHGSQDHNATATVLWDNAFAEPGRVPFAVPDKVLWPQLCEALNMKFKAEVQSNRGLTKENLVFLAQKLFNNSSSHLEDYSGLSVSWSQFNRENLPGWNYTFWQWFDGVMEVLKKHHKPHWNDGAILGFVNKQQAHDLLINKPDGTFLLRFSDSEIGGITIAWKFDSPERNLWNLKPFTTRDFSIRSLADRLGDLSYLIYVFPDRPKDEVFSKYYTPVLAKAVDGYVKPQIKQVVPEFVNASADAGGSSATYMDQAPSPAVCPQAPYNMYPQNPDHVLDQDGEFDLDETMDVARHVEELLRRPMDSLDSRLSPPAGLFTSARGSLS

[2] = target: T2, Signal transducer and activator of transcription 3 (Homo sapiens, UniProt P40763); assay: Inhibition of Stat3 phosphorylation in human HEL cells after 1 hr by Western blotting
[3] = target: T2, Signal transducer and activator of transcription 3; assay: Inhibition of Stat3 phosphorylation in human SET2 cells after 1 hr by Western blotting
[4] = target: T1, Signal transducer and activator of transcription 5A; assay: Inhibition of Stat5 phosphorylation in human SET2 cells after 1 hr by Western blotting

T2 sequence (P40763 whole entry): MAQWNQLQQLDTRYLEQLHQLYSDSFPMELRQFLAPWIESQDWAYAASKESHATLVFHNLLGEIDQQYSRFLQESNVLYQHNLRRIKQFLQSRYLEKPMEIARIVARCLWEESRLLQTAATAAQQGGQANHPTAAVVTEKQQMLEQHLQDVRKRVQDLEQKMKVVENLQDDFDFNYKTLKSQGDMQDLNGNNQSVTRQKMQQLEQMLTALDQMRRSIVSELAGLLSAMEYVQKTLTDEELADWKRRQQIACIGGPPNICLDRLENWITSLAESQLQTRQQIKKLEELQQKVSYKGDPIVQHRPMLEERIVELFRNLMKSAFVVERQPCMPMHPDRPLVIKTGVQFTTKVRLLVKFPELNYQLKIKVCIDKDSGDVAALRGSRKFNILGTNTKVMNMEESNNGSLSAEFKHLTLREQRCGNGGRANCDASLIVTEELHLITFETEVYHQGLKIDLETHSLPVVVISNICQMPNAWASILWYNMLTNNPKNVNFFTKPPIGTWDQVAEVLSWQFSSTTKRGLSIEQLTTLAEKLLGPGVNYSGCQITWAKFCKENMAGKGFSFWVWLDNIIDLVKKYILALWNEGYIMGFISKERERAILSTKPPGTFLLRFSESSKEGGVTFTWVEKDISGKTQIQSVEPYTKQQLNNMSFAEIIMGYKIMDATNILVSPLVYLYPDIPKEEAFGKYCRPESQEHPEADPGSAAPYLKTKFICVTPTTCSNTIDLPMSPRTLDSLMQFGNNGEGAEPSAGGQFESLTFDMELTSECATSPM

In the case of Cc1cc(Nc2nc(N[C@@H](C)c3ncc(F)cn3)ncc2Cl)[nH]n1 [5-Chloro-N2-[(1S)-1-(5-fluoropyrimidin-2-yl)ethyl]-N4-(5-methyl-1H-pyrazol-3-yl)pyrimidine-2,4-diamine], the IC50 [1] is reported as 41 nM, the IC50 [2] is reported as 80 nM and the IC50 [3] is reported as 23 nM. The IC50 [4] was 25 nM.
